The values below come from ChEMBL document CHEMBL1201862, “PubChem BioAssay data set” (2004).

What all share (test): inhibition of tumour cell growth, NCI panel, 48 h
Experiment [1] has as its system A549.
Experiment [2] concerns ACHN.
The subject of experiment [3] is CAKI-1.
Experiment [4] deals with COLO 205.
Experiment [5] concerns HCC 2998.
The test system of experiment [6] is HL-60.
Experiment [7] has as its system K562.
Experiment [8] has as its system NCI-H23.
The test system of experiment [9] is OVCAR-4.
Experiment [10] concerns OVCAR-5.
Experiment [11] deals with RPMI-8226.
Experiment [12] concerns RXF 393.
The test system of experiment [13] is SF-268.
For experiment [14], the system named is SK-MEL-28.
The subject of experiment [15] is SK-MEL-2.
Experiment [16] relates to SR.
Experiment [17] relates to UACC-62.
Experiment [18] has as its system SF-295.

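Growth conditions: 96-well plates. Treatment: test compound, 48 hours, 5 concentrations. Analysis: linear interpolation between bracketing concentrations; unreached endpoints set to highest concentration. GI50: concentration for 50% inhibition of growth.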 Calls of active or inactive are those of the source. Cut-off read from the data, not from the text of the source: active = GI50 up to about 1.1 µM and inactive = higher. Bounds are passed on as bounds.

Regarding `COC(=O)CC1C(=O)OCc2c1cc1n(c2=O)Cc2c-1nc1ccccc1c2OC` (centres undefined), the GI50 in [1] is 59.8 µM (inactive); in experiment [2], 23.6 µM (inactive); in [3], 4.51 µM (inactive); in experiment [4], > 100 µM (inactive); in experiment [5], > 100 µM (inactive); in [6], 18.5 µM (inactive). The GI50 in experiment [7] was 84.1 µM (inactive); in experiment [8], 17.3 µM (inactive); in experiment [9] it was > 100 µM (inactive); in [10], 58.9 µM (inactive); in experiment [11] it was > 100 µM (inactive); in experiment [12] it was 17.5 µM (inactive). Besides, the GI50 in experiment [13] was 19.3 µM (inactive); in [14] it was > 100 µM (inactive); in [15] it was > 100 µM (inactive); in experiment [16], 6.05 µM (inactive); in experiment [17], 19.7 µM (inactive).

In the case of `CN(C)C(=S)/N=c1\ss/c(=N\C(=S)N(C)C)n1Cc1ccco1`, the GI50 in experiment [1], in experiment [2], in experiment [3], in experiment [4], in experiment [5] and in experiment [6] was > 100 µM (inactive) in each case. The GI50 in [7], in experiment [9], in experiment [11], in experiment [12], in experiment [13] and in experiment [14] was > 100 µM (inactive) throughout. Moreover, the GI50 in experiment [15], in experiment [16] and in experiment [17] was > 100 µM (inactive) each time.

With `N#CSCc1nc2ccc(Cl)cc2c(-c2ccccc2)[n+]1[O-]`, the GI50 in experiment [1] was 33.8 µM (inactive); in [2], 16.9 µM (inactive); in experiment [3], 25.8 µM (inactive); in [4], 60.1 µM (inactive); in experiment [5], 15.6 µM (inactive); in experiment [6] it was 21.5 µM (inactive). The GI50 was 25.7 µM (inactive) in experiment [7]; 25.5 µM (inactive) in [9]; 21 µM (inactive) in [10]; 25.3 µM (inactive) in experiment [11]; 12.7 µM (inactive) in experiment [12]; 25.7 µM (inactive) in experiment [13]. Also, the GI50 was 35.2 µM (inactive) in experiment [18]; 14.5 µM (inactive) in experiment [14]; 20.1 µM (inactive) in experiment [15]; 24.9 µM (inactive) in [16]; 19.2 µM (inactive) in experiment [17].

In the case of `O=C1CC(O)C=C1Nc1ccc(Cl)cc1` (centres undefined), the GI50 in experiment [1] was 5.81 µM (inactive); in experiment [2] it was 6.98 µM (inactive); in [3] it was 10.5 µM (inactive); in [4], 9.95 µM (inactive); in [5], 12.1 µM (inactive); in experiment [6], 13.1 µM (inactive). Also, the GI50 in experiment [7] is 4.4 µM (inactive); in experiment [8], 29 µM (inactive); in [9], 60.1 µM (inactive); in experiment [10], 90.8 µM (inactive); in [12], 40.5 µM (inactive); in [13], 62.4 µM (inactive). Besides, the GI50 was 33.1 µM (inactive) in experiment [18]; 56.2 µM (inactive) in experiment [14]; 29.6 µM (inactive) in experiment [15]; 19.1 µM (inactive) in experiment [16]; 0.879 µM (active) in [17].

As for `COc1ccc(/C=C/c2cc(OC)c(OC)c(OC)c2)cc1OC`, the GI50 in [1] was > 100 µM (inactive); in experiment [2] it was > 100 µM (inactive); in [3], > 83.6 µM (inactive); in [4], > 100 µM (inactive); in experiment [5], > 100 µM (inactive); in experiment [6], > 70.3 µM (inactive). In addition, the GI50 in experiment [7] was > 100 µM (inactive); in [8], > 100 µM (inactive); in experiment [9], > 100 µM (inactive); in experiment [10] it was > 100 µM (inactive); in experiment [11], > 100 µM (inactive); in experiment [12], > 63 µM (inactive). Further, the GI50 in experiment [13] is > 67.9 µM (inactive); in experiment [18], 65.2 µM (inactive); in experiment [14], 55.6 µM (inactive); in experiment [15], > 100 µM (inactive); in [16], > 100 µM (inactive); in experiment [17], > 80.7 µM (inactive).

On to `Cc1ccc(/C=C/C(=O)c2cccc3ccccc23)cc1`, for which the GI50 is 16.7 µM (inactive) in [1]; 16.9 µM (inactive) in experiment [2]; 16.4 µM (inactive) in experiment [3]; 20.5 µM (inactive) in [4]; 22.9 µM (inactive) in [5]; 7.18 µM (inactive) in experiment [6]. Moreover, the GI50 was 8.65 µM (inactive) in [7]; > 10 µM (inactive) in [8]; 13.4 µM (inactive) in [9]; 14.4 µM (inactive) in experiment [10]; 2.49 µM (inactive) in [11]; 12.7 µM (inactive) in experiment [12]. For the same compound, the GI50 in experiment [13] is 16.2 µM (inactive); in experiment [18], 17.7 µM (inactive); in experiment [14], 18 µM (inactive); in experiment [15] it was 18.5 µM (inactive); in experiment [16] it was 11.3 µM (inactive); in experiment [17] it was 17.4 µM (inactive).

As for `CCCCCC(=O)C(C)C1=Nc2nnc(CCCCCCCc3nnc4n3C(=O)C(C(C)C(=O)CCCCC)=N4)n2C1=O` (centres undefined), the GI50 in [1], in experiment [2], in experiment [3], in [4], in experiment [5] and in [6] was > 100 µM (inactive) in each case. The GI50 in experiment [7], in experiment [8], in experiment [9], in experiment [10], in experiment [11] and in experiment [12] was > 100 µM (inactive) in each case. For the same compound, the GI50 in [13], in experiment [18], in experiment [14], in experiment [16] and in [17] was > 100 µM (inactive) each time.

`CN(C(=O)C12C3C4C5C3C1(C(=O)C13C6C7C8C6C1C8C73)C5C42)C(C)(C)C` (centres undefined): the GI50 in experiment [1] is > 30.1 µM (inactive); in [2], > 50 µM (inactive); in experiment [3] it was > 50 µM (inactive); in [4], > 29.8 µM (inactive); in [5], > 50 µM (inactive); in experiment [6], > 19.3 µM (inactive). Moreover, the GI50 was > 25.6 µM (inactive) in experiment [7]; > 50 µM (inactive) in [8]; > 50 µM (inactive) in [9]; > 50 µM (inactive) in [10]; > 27.3 µM (inactive) in [11]; > 50 µM (inactive) in experiment [12]. Besides, the GI50 in experiment [13], in [18], in [14], in [15], in experiment [16] and in experiment [17] was > 50 µM (inactive) throughout.

Consider `CCc1cccc(NC(=O)c2cc(/C=C/c3ccccc3)nc(S)n2)c1`, for which the GI50 in experiment [1], in experiment [2], in experiment [4], in experiment [5], in experiment [6] and in experiment [7] was > 100 µM (inactive) in each case. Besides, the GI50 in [8], in [9], in experiment [10], in experiment [11], in experiment [12] and in experiment [13] was > 100 µM (inactive) throughout. For the same compound, the GI50 in [18], in experiment [14], in experiment [15], in experiment [16] and in experiment [17] was > 100 µM (inactive) in each case.

In the case of `Cc1ccc(S(=O)(=O)N/N=C2\CCCCC23CCC(=O)NC3)cc1` (centres undefined), the GI50 in [1], in experiment [2], in experiment [3], in [4], in [5] and in experiment [6] was > 100 µM (inactive) throughout. For the same compound, the GI50 in experiment [7], in [9], in experiment [11], in experiment [12], in experiment [13] and in [14] was > 100 µM (inactive) throughout. For the same compound, the GI50 in experiment [15], in experiment [16] and in [17] was > 100 µM (inactive) in each case.

As to `C[C@H]1C(=O)CC[C@]2(C)CCC(C(C)(C)O)CC12O` (some centres undefined), the GI50 in [1], in experiment [2], in experiment [3], in experiment [4], in experiment [5] and in experiment [6] was > 100 µM (inactive) in each case. In addition, the GI50 in experiment [7], in experiment [8], in experiment [9], in experiment [10], in [11] and in [12] was > 100 µM (inactive) throughout. In addition, the GI50 in experiment [13], in experiment [18], in experiment [14], in experiment [15], in experiment [16] and in experiment [17] was > 100 µM (inactive) each time.

With `CC1(C)C(=NNC(=O)C[N+](C)(C)C)C(C)(C)C1=NNC(=O)C[N+](C)(C)C`, the GI50 in [1], in experiment [2], in [3], in experiment [4], in experiment [5] and in experiment [6] was > 100 µM (inactive) each time. Further, the GI50 in experiment [7], in experiment [8], in experiment [9], in experiment [10], in experiment [12] and in experiment [13] was > 100 µM (inactive) throughout. Moreover, the GI50 in [18], in [14], in [15], in [16] and in [17] was > 100 µM (inactive) throughout.
